Laboratory results taken from patent publication US5116845A (priority 1990, dated 1992).

Assays:
[1] = test system: P388 leukemia; assay: Antitumor activity against P388 leukemia (ip); format: in vivo, mice; details: maximum over the doses
[2] = test system: Gram-positive aerobic bacteria; format: cell-based
[3] = test system: Gram-negative organisms; format: cell-based
[4] = Solubility; format: physicochemical
[5] = test system: mice; assay: Acute toxicity, intramuscular; format: in vivo; details: 5 mg/kg intramuscular
[6] = test system: murine and human tumor cell lines; assay: In vitro cytotoxicity
[7] = test system: P388/VCR; assay: In vitro cytotoxicity (viable cell count)
[8] = test system: Moser and HCT-116 cells; details: versus murine B16-F10

Compound	maximum T/C [1]	activity against Gram-positive aerobic bacteria [2]	susceptibility of Gram-negative organisms [3]	solubility in organic solvents ([4]; chloroform, methanol and ethanol, compared with BU-3420T)	toxicity [5]	solubility ([4]; chloroform)	solubility ([4]; dimethyl sulfoxide)	solubility ([4]; dimethylformamide)	solubility ([4]; dioxane)	solubility ([4]; ethanol)	solubility ([4]; ethyl acetate)	solubility ([4]; methanol)	solubility ([4]; n-hexane)	solubility ([4]; water)	cytotoxicity [6]	cytotoxicity against VCR-resistant versus sensitive P388 cells [7]	resistance of Moser and HCT-116 relative to B16-F10 [8]
COC1=C(C(=O)O)C(C)C23OC24c2cc(OC(C)=O)c5c(c2NC3C#C/C=C\C#CC14)C(=O)c1c(OC(C)=O)ccc(OC(C)=O)c1C5=O (centres unmarked) [BU-3420T acetate]	135%	intensely potent activity	a little less susceptible	much improved solubility													
COC1=C(C(=O)O)C(C)C23OC24c2cc(O)c5c(c2NC3C#CC=CC#CC14)C(=O)c1c(O)ccc(O)c1C5=O (centres unmarked) [BU-3420T]	135%	intensely potent activity	a little less susceptible		did not show any toxicity	slightly soluble	soluble	soluble	soluble	slightly soluble	slightly soluble	slightly soluble	insoluble	insoluble	potent cytotoxicity	same cytotoxicities	
CO[C@@]12[C@H](COC(N)=O)C3=C(C(=O)C(C)=C(N)C3=O)N1C[C@@H]1N[C@@H]12 [Mitomycin C]																	slightly more resistant
